# Assay results from patent US20080167314A1, “Condensed Imidazole Compound And Use Thereof” (priority 2004, published 2008).
row,Structure (SMILES),melting point [°C]
1,"CCNC(=O)Nc1cc(-c2c(-c3cccc(Cl)c3)nc3cccnn23)ccn1 [Example Compound 28-7, N-{4-[2-(3-chlorophenyl)imidazo[1,2-b]pyridazin-3-yl]pyridin-2-yl}-N′-ethylurea]",230 to 231
2,"Cc1cccc(-c2nc3cccnn3c2-c2ccnc(N)n2)c1 [Example Compound 37-1, 4-[2-(3-methylphenyl)imidazo[1,2-b]pyridazin-3-yl]-2-pyrimidinamine]",250 to 251
3,"Cc1cccc(-c2nc3cccnn3c2-c2ccnc(NC3CCCC3)c2)c1 [Example Compound 6-2, N-cyclopentyl-4-[2-(3-methylphenyl)imidazo[1,2-b]pyridazin-3-yl]pyridin-2-amine]",130 to 131
4,"Nc1cc(-c2c(-c3ccc(Cl)cc3)nc3cccnn23)ccn1 [Example Compound 16-2, 4-[2-(4-chlorophenyl)imidazo[1,2-b]pyridazin-3-yl]pyridin-2-amine]",252 to 253
5,"Cc1cccc(-c2nc3cccnn3c2-c2ccnc(Nc3cccc(C)c3C)c2)c1 [Example Compound 6-7, N-(2,3-dimethylphenyl)-4-[2-(3-methylphenyl)imidazo[1,2-b]pyridazin-3-yl]pyridin-2-amine]",187 to 188
6,"Cc1cccc(-c2nc3cccnn3c2-c2ccnc(NCc3ccco3)c2)c1 [Example Compound 6-17, N-(2-furylmethyl)-4-[2-(3-methylphenyl)imidazo[1,2-b]pyridazin-3-yl]pyridin-2-amine]",150 to 151
7,"Cc1cc(-c2nc3cccnn3c2-c2ccnc(NC(=O)CCS(C)(=O)=O)c2)ccc1F [Example 56, N-{4-[2-(4-Fluoro-3-methylphenyl)imidazo[1,2-b]pyridazin-3-yl]pyridin-2-yl}-3-(methylsulfonyl)propanamide]",227 to 228
8,Cc1cc(-c2nc3cccnn3c2-c2ccnc(NC(=O)c3ccc(Cl)nc3)c2)ccc1F.Cl,250 to 251
9,"CSc1ccc2nc(-c3ccc(F)c(C)c3)c(-c3ccnc(NC(=O)NC(C)C)c3)n2n1 [Example 54, N-{4-[2-(4-Fluoro-3-methylphenyl)-6-(methylthio)imidazo[1,2-b]pyridazin-3-yl]pyridin-2-yl}-N′-isopropylurea]",241 to 242
10,"COc1ccccc1Nc1cc(-c2c(-c3cccc(C)c3)nc3cccnn23)ccn1 [Example Compound 6-6, N-(2-methoxyphenyl)-4-[2-(3-methylphenyl)imidazo[1,2-b]pyridazin-3-yl]pyridin-2-amine]",157 to 158
11,"CCNC(=O)Nc1cc(-c2c(-c3ccc(Cl)cc3)nc3cccnn23)ccn1 [Example Compound 28-8, N-{4-[2-(4-chlorophenyl)imidazo[1,2-b]pyridazin-3-yl]pyridin-2-yl}-N′-ethylurea]",223 to 224
12,"Cc1cccc(-c2nc3ccc(S(C)(=O)=O)nn3c2-c2ccnc(NC3CCCCC3)c2)c1 [Example 11, N-Cyclohexyl-4-[2-(3-methylphenyl)-6-(methylsulfonyl)imidazo[1,2-b]pyridazin-3-yl]pyridin-2-amine]",196 to 197

# Now from value to compound:
row,melting point [°C],Structure (SMILES)
1,229 to 230,"CCNC(=O)Nc1cc(-c2c(-c3ccc(F)c(C)c3)nc3c(C)cc(Cl)nn23)ccn1 [Example 48-1, N-{4-[6-chloro-2-(4-fluoro-3-methylphenyl)-8-methylimidazo[1,2-b]pyridazin-3-yl]-2-pyridyl}-N′-ethylurea]"
2,217 to 218,"Cc1cc(-c2nc3cccnn3c2-c2ccnc(NC(=O)c3ccsc3)c2)ccc1F [Example 42-32, N-{4-[2-(4-fluoro-3-methylphenyl)imidazo[1,2-b]pyridazin-3-yl]pyridin-2-yl}thiophene-3-carboxamide]"
3,200 to 202,"COc1ccc(C(=O)Nc2cc(-c3c(-c4ccc(F)c(C)c4)nc4cccnn34)ccn2)c(C)c1 [Example 42-18, N-{4-[2-(4-fluoro-3-methylphenyl)imidazo[1,2-b]pyridazin-3-yl]pyridin-2-yl}-4-methoxy-2-methylbenzamide]"
4,234 to 235,"Cc1cc(-c2nc3cccnn3c2-c2ccnc(NC(=O)Nc3ccsc3)c2)ccc1F [Example 47-6, N-{4-[2-(4-fluoro-3-methylphenyl)imidazo[1,2-b]pyridazin-3-yl]pyridin-2-yl}-N′-3-thienylurea]"
5,170 to 171,"Cc1cc(-c2nc3cccnn3c2-c2ccnc(NC(=O)NCCCCl)c2)ccc1F [Example 47-4, N-(3-chloropropyl)-N′-{4-[2-(4-fluoro-3-methylphenyl)imidazo[1,2-b]pyridazin-3-yl]pyridin-2-yl}urea]"
6,252 to 254,"Cc1cc(-c2nc3cccnn3c2-c2ccnc(NC(=O)c3cncc(Cl)c3)c2)ccc1F [Example 42-28, 5-chloro-N-{4-[2-(4-fluoro-3-methylphenyl)imidazo[1,2-b]pyridazin-3-yl]pyridin-2-yl}nicotinamide]"
7,187 to 188,"Cc1cc(-c2nc3cccnn3c2-c2ccnc(NC(=O)c3ccc4ccccc4c3)c2)ccc1F [Example 42-19, N-{4-[2-(4-fluoro-3-methylphenyl)imidazo[1,2-b]pyridazin-3-yl]pyridin-2-yl}-2-naphthamide]"
8,199 to 200,"Cc1cc(-c2nc3cccnn3c2-c2ccnc(NC(=O)c3ccoc3)c2)ccc1F [Example 42-33, N-{4-[2-(4-fluoro-3-methylphenyl)imidazo[1,2-b]pyridazin-3-yl]pyridin-2-yl}-3-furamide]"
9,238 to 240,"Cc1cncc(C(=O)Nc2cc(-c3c(-c4ccc(F)c(C)c4)nc4cccnn34)ccn2)c1 [Example 42-30, N-{4-[2-(4-fluoro-3-methylphenyl)imidazo[1,2-b]pyridazin-3-yl]pyridin-2-yl}-5-methylnicotinamide]"
10,234 to 235,"Cc1cc(-c2nc3cccnn3c2-c2ccnc(NC(=O)NC(C)(C)C)c2)ccc1F [Example 47-2, N-(tert-butyl)-N′-{4-[2-(4-fluoro-3-methylphenyl)imidazo[1,2-b]pyridazin-3-yl]pyridin-2-yl}urea]"
11,187 to 188,"CCC(CC)NC(=O)Nc1cc(-c2c(-c3ccc(F)c(C)c3)nc3cccnn23)ccn1 [Example 51-4, N-(1-ethylpropyl)-N′-{4-[2-(4-fluoro-3-methylphenyl)imidazo[1,2-b]pyridazin-3-yl]pyridin-2-yl}urea]"
12,181 to 183,"CCCC(=O)Nc1cc(-c2c(-c3ccc(F)c(C)c3)nc3cccnn23)ccn1 [Example 42-4, N-{4-[2-(4-fluoro-3-methylphenyl)imidazo[1,2-b]pyridazin-3-yl]pyridin-2-yl}butanamide]"
13,196 to 197,"CCC(C)NC(=O)Nc1cc(-c2c(-c3ccc(F)c(C)c3)nc3cccnn23)ccn1 (centres unmarked) [Example 47-3, N-(sec-butyl)-N′-{4-[2-(4-fluoro-3-methylphenyl)imidazo[1,2-b]pyridazin-3-yl]pyridin-2-yl}urea]"
14,212 to 213,"CCNC(=O)Nc1cc(-c2c(-c3ccc(F)c(C)c3)nc3cc(C(C)(C)C)cnn23)ccn1 [Example 48-4, N-{4-[7-tert-butyl-2-(4-fluoro-3-methylphenyl)imidazo[1,2-b]pyridazin-3-yl]-2-pyridyl}-N′-ethylurea]"
